Patent publication US11046699B2, “Pyrazolo-pyrimidin-amino-cycloalkyl compounds and their therapeutic uses” (RAPT THERAPEUTICS, INC., priority 2018, dated 2021)
Structures can show the parent of a compound that is named as a salt. Where two headings read alike, the source gives them in different places.

Molecular target: GCN2 (Homo sapiens, UniProt Q9P2K8)
Assay: GCN2 enzymatic endpoint assay: phosphorylation of GFP-eIF2α measured by TR-FRET (Lanthascreen)
Assay type: biochemical
Procedure, shortened: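 Endpoint GCN2 reaction with low ATP (2 μM) and 80 nM GFP-eIF2α, room temperature, 90 minutes. Detection mix with EDTA and Tb-labelled antibody; 520 nm/495 nm emission ratio reported.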

[1] = GCN2 biochemical IC50, 4 nM GCN2, 2 μM ATP, 80 nM GFP-eIF2α, 90 min RT, read-out: GCN2 activity
[2] = tested as described in Example 77, compound and/or hydrochloride, dihydrochloride or trifluoroacetic acid salt, read-out: IC 50 Activity

Chain of GCN2 (Q9P2K8 whole entry): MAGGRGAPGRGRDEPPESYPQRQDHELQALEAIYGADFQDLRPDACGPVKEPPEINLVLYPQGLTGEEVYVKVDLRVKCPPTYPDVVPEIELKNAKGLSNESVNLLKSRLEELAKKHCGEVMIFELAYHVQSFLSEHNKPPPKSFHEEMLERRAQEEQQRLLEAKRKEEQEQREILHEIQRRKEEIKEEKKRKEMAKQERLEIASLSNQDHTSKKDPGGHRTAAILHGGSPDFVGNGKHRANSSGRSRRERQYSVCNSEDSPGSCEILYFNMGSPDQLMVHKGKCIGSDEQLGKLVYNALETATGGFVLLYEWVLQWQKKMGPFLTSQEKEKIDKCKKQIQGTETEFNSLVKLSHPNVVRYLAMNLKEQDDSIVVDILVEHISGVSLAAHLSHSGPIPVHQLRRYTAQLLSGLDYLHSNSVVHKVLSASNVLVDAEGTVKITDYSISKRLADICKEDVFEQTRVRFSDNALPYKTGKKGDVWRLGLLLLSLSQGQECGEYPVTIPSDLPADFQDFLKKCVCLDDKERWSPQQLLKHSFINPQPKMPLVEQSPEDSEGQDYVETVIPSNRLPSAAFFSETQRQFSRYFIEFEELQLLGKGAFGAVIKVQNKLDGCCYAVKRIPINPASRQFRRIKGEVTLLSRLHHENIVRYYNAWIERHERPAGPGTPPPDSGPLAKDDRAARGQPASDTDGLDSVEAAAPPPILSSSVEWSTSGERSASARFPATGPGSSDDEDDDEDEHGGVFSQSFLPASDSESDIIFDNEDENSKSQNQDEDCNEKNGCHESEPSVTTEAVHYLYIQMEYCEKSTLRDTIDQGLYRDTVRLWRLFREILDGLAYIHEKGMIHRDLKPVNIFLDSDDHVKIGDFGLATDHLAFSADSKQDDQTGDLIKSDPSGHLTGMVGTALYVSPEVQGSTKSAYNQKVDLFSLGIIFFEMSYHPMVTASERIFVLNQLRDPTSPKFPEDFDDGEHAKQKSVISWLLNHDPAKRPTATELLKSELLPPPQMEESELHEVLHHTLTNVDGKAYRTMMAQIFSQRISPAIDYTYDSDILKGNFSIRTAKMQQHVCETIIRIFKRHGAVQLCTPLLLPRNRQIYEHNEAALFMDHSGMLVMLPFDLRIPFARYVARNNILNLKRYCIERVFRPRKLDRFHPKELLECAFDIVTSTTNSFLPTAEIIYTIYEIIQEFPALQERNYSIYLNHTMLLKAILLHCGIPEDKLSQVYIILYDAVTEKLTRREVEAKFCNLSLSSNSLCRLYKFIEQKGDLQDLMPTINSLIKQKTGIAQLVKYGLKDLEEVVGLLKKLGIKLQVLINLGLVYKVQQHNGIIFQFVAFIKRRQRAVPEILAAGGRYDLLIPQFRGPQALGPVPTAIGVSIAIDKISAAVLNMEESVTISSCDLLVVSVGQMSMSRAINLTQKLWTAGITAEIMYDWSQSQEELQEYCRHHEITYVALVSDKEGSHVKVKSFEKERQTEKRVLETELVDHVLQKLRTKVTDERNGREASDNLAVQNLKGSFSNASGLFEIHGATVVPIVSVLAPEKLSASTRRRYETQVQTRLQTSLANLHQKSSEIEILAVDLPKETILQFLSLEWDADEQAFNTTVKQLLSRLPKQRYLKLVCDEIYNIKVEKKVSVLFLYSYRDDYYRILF

Row | SMILES | IC50 [1] | IC50 [2]
1 | CNC(=O)[C@]1(C)CC[C@@H](Nc2ncc3c(Br)nn(-c4cc(Cl)c(F)c(CC#N)c4)c3n2)C1 |  | 25 to 200 nM
2 | CNC(=O)[C@]1(C)CC[C@@H](Nc2ncc3c(Br)nn(-c4cc(CNCCC#N)cc(OC(F)(F)F)c4)c3n2)C1 [(1R,3R)-3-[[3-bromo-1-[3-[(2-cyanoethyl-amino)methyl]-5-(trifluoromethoxy)phenyl]pyrazolo[3,4-d]pyrimidin-6-yl]amino]-N,1-dimethyl-cyclopentane-carboxamide] |  | 25 to 200 nM
3 | N#Cc1cc(-n2nc(Br)c3cnc(N[C@@H]4CC[C@@H](C(=O)NC[C@H]5COCCN5)C4)nc32)cc2cccnc12 [(1R,3R)-3-((3-bromo-1-(8-cyanoquinolin-6-yl)-1H-pyrazolo[3,4-d]pyrimidin-6-yl)amino)-N-(((S)-morpholin-3-yl)methyl)cyclopentane-1-carboxamide] |  | < 25 nM
4 | O=C1CN(C(=O)[C@@H]2CC[C@@H](Nc3ncc4c(Br)nn(-c5ccc(-c6ncco6)cc5)c4n3)C2)CCN1 [4-((1R,3R)-3-((3-bromo-1-(4-(oxazol-2-yl)phenyl)-1H-pyrazolo[3,4-d]pyrimidin-6-yl)amino)cyclopentane-1-carbonyl)piperazin-2-one] |  | 25 to 200 nM
5 | Cc1nnc(-c2ccc(-n3nc(Br)c4cnc(N[C@@H]5CCC(CN6CCOCC6)(C(=O)O)C5)nc43)cc2)s1 (some centres unmarked) |  | 25 to 200 nM
6 | CNC(=O)[C@]1(C)CC[C@@H](Nc2ncc3c(Br)nn(-c4cc(C#N)cc(OCC#N)c4)c3n2)C1 [(1R,3R)-3-[[3-bromo-1-[3-cyano-5-(cyanomethoxy)phenyl]pyrazolo[3,4-d]pyrimidin-6-yl]amino]-N,1-dimethyl-cyclopentanecarboxamide] |  | 25 to 200 nM
7 | CCc1nnc(-c2ccc(-n3nc(Br)c4cnc(N[C@@H]5CC[C@@](C)(C(=O)NC)C5)nc43)cc2)s1 [(1R,3R)-3-[[3-bromo-1-[4-(5-ethyl-1,3,4-thiadiazol-2-yl)phenyl]pyrazolo[3,4-d]pyrimidin-6-yl]amino]-N,1-dimethyl-cyclopentanecarboxamide] |  | 25 to 200 nM
8 | CNC(=O)[C@]1(C)CC[C@@H](Nc2ncc3c(Br)nn(-c4ccc5[nH]c(=O)ncc5c4)c3n2)C1 [(1R,3R)-3-[[3-bromo-1-(2-oxo-1H-quinazolin-6-yl)pyrazolo[3,4-d]pyrimidin-6-yl]amino]-N,1-dimethyl-cyclopentane-carboxamide; 2,2,2-trifluoroacetic acid] |  | 25 to 200 nM
9 | CS(=O)(=O)CCNC(=O)[C@@H]1CC[C@@H](Nc2ncc3c(Br)nn(-c4ccc5ncccc5c4)c3n2)C1 [(1R,3R)-3-((3-bromo-1-(quinolin-6-yl)-1H-pyrazolo[3,4-d]pyrimidin-6-yl)amino)-N-(2-(methylsulfonyl)ethyl)cyclopentane-1-carboxamide] |  | 200 to 500 nM
10 | CNC(=O)[C@@H]1CC[C@@H](Nc2ncc3c(Br)nn(-c4cc(C#N)c5c(c4)CCO5)c3n2)C1 [(1R,3R)-3-[[3-bromo-1-(7-cyano-2,3-dihydro-benzofuran-5-yl)pyrazolo[3,4-d]pyrimidin-6-yl]amino]-N-methyl-cyclopentanecarboxamide] |  | 25 to 200 nM
11 | C[C@]1(C(=O)O)C[C@H](Nc2ncc3c(Br)nn(-c4ccc5ncccc5c4)c3n2)C1 |  | 200 to 500 nM
12 | CNC(=O)[C@]1(COC)CC[C@@H](Nc2ncc3c(Br)nn(-c4cc(F)c5ncccc5c4)c3n2)C1 [(1R,3R)-3-[[3-bromo-1-(8-fluoro-6-quinolyl)pyrazolo[3,4-d]pyrimidin-6-yl]amino]-1-(methoxymethyl)-N-methyl-cyclopentane-carboxamide] |  | < 25 nM
13 | CNC(=O)[C@]1(C)CC[C@@H](Nc2ncc3c(Br)nn(-c4ccc5c(c4)CCN(C(=O)C4CNC4)C5)c3n2)C1 [(1R,3R)-3-[[1-[2-(azetidine-3-carbonyl)-3,4-dihydro-1H-isoquinolin-6-yl]-3-bromo-pyrazolo[3,4-d]pyrimidin-6-yl]amino]-N,1-dimethyl-cyclopentanecarboxamide] |  | 25 to 200 nM

Results, then the compound that gave them:

Row | IC50 [1] | IC50 [2] | SMILES
14 | < 25 nM |  | CNC(=O)[C@]1(CC#N)CC[C@@H](Nc2ncc3c(Br)nn(-c4cc(F)c5ncccc5c4)c3n2)C1 [Example 40, (1R,3R)-3-((3-bromo-1-(8-fluoroquinolin-6-yl)-1H-pyrazolo[3,4-d]pyrimidin-6-yl)amino)-1-(cyanomethyl)-N-methylcyclopentane-1-carboxamide hydrochloride]
15 |  | < 25 nM | CNC(=O)[C@]1(C)CC[C@@H](Nc2ncc3c(Br)nn(-c4ccc(-c5nnc(C(C)CO)o5)cc4)c3n2)C1 (stereo partly drawn) [(1R,3R)-3-[[3-bromo-1-[4-[5-(2-hydroxy-1-methyl-ethyl)-1,3,4-oxadiazol-2-yl]phenyl]pyrazolo[3,4-d]pyrimidin-6-yl]amino]-N,1-dimethyl-cyclopentane-carboxamide]
16 |  | 25 to 200 nM | C[C@@H]1CN(C(=O)[C@@H]2CC[C@@H](Nc3ncc4c(Br)nn(-c5ccc6ncccc6c5)c4n3)C2)C[C@H](C)N1 [((1R,3R)-3-((3-bromo-1-(quinolin-6-yl)-1H-pyrazolo[3,4-d]pyrimidin-6-yl)amino)cyclo-pentyl)((3S,5R)-3,5-dimethylpiperazin-1-yl) methanone]
17 |  | 25 to 200 nM | CNC(=O)[C@]1(O)CC[C@@H](Nc2ncc3c(Br)nn(-c4cc(F)c5ncccc5c4)c3n2)C1 [(1S,3R)-3-[[3-bromo-1-(8-fluoro-6-quinolyl)pyrazolo[3,4-d]pyrimidin-6-yl]amino]-1-hydroxy-N-methyl-cyclopentanecarboxamide]
18 |  | 25 to 200 nM | CNC(=O)[C@@]1(CO)CC[C@@H](Nc2ncc3c(Br)nn(-c4ccc(-c5nnc(C)s5)cc4)c3n2)C1 [(1S,3R)-3-[[3-bromo-1-[4-(5-methyl-1,3,4-thiadiazol-2-yl)phenyl]pyrazolo [3,4-d]pyrimidin-6-yl]amino]-1-(hydroxymethyl)-N-methyl-cyclo-pentanecarboxamide]
19 |  | 25 to 200 nM | CNC(=O)C1(C)CC[C@@H](Nc2ncc3c(Br)nn(-c4ccc(Cn5ccnc5)cc4)c3n2)C1 (stereo partly drawn) [(3R)-3-[[3-bromo-1-[4-(imidazol-1-ylmethyl)phenyl]pyrazolo[3,4-d]pyrimidin-6-yl]amino]-N,1-dimethyl-cyclopentanecarboxamide]
20 |  | 25 to 200 nM | CNC(=O)[C@@H]1CC[C@@H](Nc2ncc3c(I)nn(-c4ccc(-c5nnc(C)o5)cc4)c3n2)C1 [(1R,3R)-3-[[3-iodo-1-[4-(5-methyl-1,3,4-oxadiazol-2-yl)phenyl]pyrazolo[3,4-d]pyrimidin-6-yl]amino]-N-methyl-cyclopentanecarboxamide]
21 |  | < 25 nM | O=C([C@@H]1CC[C@@H](Nc2ncc3c(Br)nn(-c4cc(F)c5ncccc5c4)c3n2)C1)N1CCN2C(=O)CC[C@H]2C1 [(8aS)-2-[(1R,3R)-3-[[3-bromo-1-(8-fluoro-6-quinolyl)pyrazolo[3,4-d]pyrimidin-6-yl]amino]cyclopentane-carbonyl]-1,3,4,7,8,8a-hexahydro-pyrrolo[1,2-a]pyrazin-6-one]
22 | 25 to 200 nM |  | CNC(=O)C[C@H]1C[C@H](Nc2ncc3c(Br)nn(-c4cc(Cl)cc([C@H](C)N)c4)c3n2)C1 [Example 71, 2-((1S,3r)-3-((1-(3-((S)-1-aminoethyl)-5-chlorophenyl)-3-bromo-1H-pyrazolo[3,4-d]pyrimidin-6-yl)amino)cyclobutyl)-N-methylacetamide]
23 |  | 25 to 200 nM | Cc1nnc(-c2ccc(-n3nc(Br)c4cnc(N[C@@H]5CC[C@@](C)(C(=O)N6CCNCC6)C5)nc43)cc2)s1 [[(1R,3R)-3-[[3-bromo-1-[4-(5-methyl-1,3,4-thiadiazol-2-yl)phenyl]pyrazolo [3,4-d]pyrimidin-6-yl]amino]-1-methyl-cyclopentyl]-piperazin-1-yl-methanone]
